Assay results as given in PubChem BioAssay (NCI).
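Briefly, cells in 96-well plates were exposed to five compound concentrations for 48 h, and endpoints were estimated by linear interpolation. At the TGI there is no net growth.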

Legend:
Experiment in all cases: NCI tumour cell line growth inhibition, 48 h
786-0 renal = test system: 786-0 renal
A498 renal = test system: A498 renal
A549 NSCLC = test system: A549 NSCLC
ACHN renal = test system: ACHN renal
CAKI-1 renal = test system: CAKI-1 renal
CCRF-CEM leukemia = test system: CCRF-CEM leukemia
COLO 205 colon = test system: COLO 205 colon
DLD-1 colon = test system: DLD-1 colon
DMS 114 small cell lung = test system: DMS 114 small cell lung
DMS 273 small cell lung = test system: DMS 273 small cell lung
EKVX NSCLC = test system: EKVX NSCLC
HCC-2998 colon = test system: HCC-2998 colon
HCT-116 colon = test system: HCT-116 colon
HCT-15 colon = test system: HCT-15 colon
HL-60(TB) leukemia = test system: HL-60(TB) leukemia
HOP-18 NSCLC = test system: HOP-18 NSCLC
HOP-62 NSCLC = test system: HOP-62 NSCLC
HOP-92 NSCLC = test system: HOP-92 NSCLC
HT29 colon = test system: HT29 colon
IGROV1 ovarian = test system: IGROV1 ovarian
K-562 leukemia = test system: K-562 leukemia
KM12 colon = test system: KM12 colon
KM20L2 colon = test system: KM20L2 colon
LOX IMVI melanoma = test system: LOX IMVI melanoma
LXFL 529 NSCLC = test system: LXFL 529 NSCLC
M14 melanoma = test system: M14 melanoma
M19-MEL melanoma = test system: M19-MEL melanoma
MALME-3M melanoma = test system: MALME-3M melanoma
MOLT-4 leukemia = test system: MOLT-4 leukemia
NCI-H226 lung = test system: NCI-H226 lung
NCI-H23 lung = test system: NCI-H23 lung
NCI-H460 lung = test system: NCI-H460 lung
NCI-H522 lung = test system: NCI-H522 lung
OVCAR-3 ovarian = test system: OVCAR-3 ovarian
OVCAR-4 ovarian = test system: OVCAR-4 ovarian
OVCAR-5 ovarian = test system: OVCAR-5 ovarian
RPMI-8226 leukemia = test system: RPMI-8226 leukemia
RXF 393 renal = test system: RXF 393 renal
RXF-631 renal = test system: RXF-631 renal
SF-268 CNS = test system: SF-268 CNS
SF-295 CNS = test system: SF-295 CNS
SF-539 CNS = test system: SF-539 CNS
SK-MEL-2 melanoma = test system: SK-MEL-2 melanoma
SK-MEL-28 melanoma = test system: SK-MEL-28 melanoma
SK-MEL-5 melanoma = test system: SK-MEL-5 melanoma
SK-OV-3 ovarian = test system: SK-OV-3 ovarian
SN12C renal = test system: SN12C renal
SNB-19 CNS = test system: SNB-19 CNS
SNB-75 CNS = test system: SNB-75 CNS
SNB-78 CNS = test system: SNB-78 CNS
SR leukemia = test system: SR leukemia
SW-620 colon = test system: SW-620 colon
TK-10 renal = test system: TK-10 renal
U251 CNS = test system: U251 CNS
UACC-257 melanoma = test system: UACC-257 melanoma
UACC-62 melanoma = test system: UACC-62 melanoma
UO-31 renal = test system: UO-31 renal
XF 498 CNS = test system: XF 498 CNS

Question: Which results are given for `Nc1nncc2c1c(Br)cn2C1OC(CO)C(O)C1O` (stereo not drawn)?
Answer: TGI (786-0 renal): > 100 µM; TGI (A498 renal): > 100 µM; TGI (A549 NSCLC): > 100 µM; TGI (ACHN renal): > 100 µM; TGI (CAKI-1 renal): > 100 µM; TGI (CCRF-CEM leukemia): > 100 µM; TGI (COLO 205 colon): > 100 µM; TGI (DLD-1 colon): > 53 µM; TGI (DMS 114 small cell lung): 62.6 µM; TGI (DMS 273 small cell lung): > 100 µM; TGI (EKVX NSCLC): > 100 µM; TGI (HCC-2998 colon): > 100 µM; TGI (HCT-116 colon): > 100 µM; TGI (HCT-15 colon): > 100 µM; TGI (HL-60(TB) leukemia): > 100 µM; TGI (HOP-18 NSCLC): > 100 µM; TGI (HOP-62 NSCLC): > 100 µM; TGI (HOP-92 NSCLC): 62.3 µM; TGI (HT29 colon): > 100 µM; TGI (IGROV1 ovarian): > 100 µM; TGI (K-562 leukemia): > 100 µM; TGI (KM12 colon): > 100 µM; TGI (KM20L2 colon): > 100 µM; TGI (LOX IMVI melanoma): > 100 µM; TGI (LXFL 529 NSCLC): > 100 µM; TGI (M14 melanoma): > 100 µM; TGI (M19-MEL melanoma): > 100 µM; TGI (MALME-3M melanoma): > 100 µM; TGI (MOLT-4 leukemia): > 100 µM; TGI (NCI-H226 lung): > 100 µM; TGI (NCI-H23 lung): > 67.6 µM; TGI (NCI-H460 lung): > 100 µM; TGI (NCI-H522 lung): > 100 µM; TGI (OVCAR-3 ovarian): > 100 µM; TGI (OVCAR-4 ovarian): > 100 µM; TGI (OVCAR-5 ovarian): > 100 µM; TGI (RPMI-8226 leukemia): > 100 µM; TGI (RXF 393 renal): > 100 µM; TGI (RXF-631 renal): > 100 µM; TGI (SF-268 CNS): > 100 µM; TGI (SF-295 CNS): > 100 µM; TGI (SF-539 CNS): > 100 µM; TGI (SK-MEL-2 melanoma): > 60.9 µM; TGI (SK-MEL-28 melanoma): > 100 µM; TGI (SK-MEL-5 melanoma): > 100 µM; TGI (SK-OV-3 ovarian): > 100 µM; TGI (SN12C renal): > 100 µM; TGI (SNB-19 CNS): > 100 µM; TGI (SNB-75 CNS): > 100 µM; TGI (SNB-78 CNS): > 100 µM; TGI (SR leukemia): > 100 µM; TGI (SW-620 colon): > 100 µM; TGI (TK-10 renal): > 100 µM; TGI (U251 CNS): > 100 µM; TGI (UACC-257 melanoma): > 100 µM; TGI (UACC-62 melanoma): > 100 µM; TGI (UO-31 renal): > 100 µM; TGI (XF 498 CNS): > 100 µM
